Source: US20250011651A1, “OIL DISPERSANT FORMULATION, METHODS AND USES THEREOF” (INSTITUTO SUPERIOR TÉCNICO, priority 2021, published 2025)

Experiment: Hydrophilic-lipophilic balance (HLB)
Assay type: physicochemical
Details: single surfactant / MEL mixture
Text: Dispersants currently used in oil spills are usually a blend of non-ionic and anionic surfactants dissolved in a solvent base. Surfactants are amphiphilic molecules containing both hydrophobic and hydrophilic regions, so they are soluble in both oil and water phases. An empirical parameter used for the classification of surfactants is the hydrophilic-lipophilic balance (HLB) number. The HLB is defined as: […]
Where Mh is the molecular weight of the hydrophilic head group of the surfactant molecule, and M is the molecular mass of the complete molecule. HLB is given on a scale of 1-20. […] A surfactant with an HLB between 8 and 12 may promote either type of emulsion, but generally promotes O/W emulsions.
In an embodiment, the results can be explained by providing the molecular level discussion of the synergy between MEL and polyethylene glycol sorbitan monooleate molecules. As explained earlier, MELs are hydrophobic and polyethylene glycol sorbitan monooleate is quite hydrophilic and water soluble. The HLB of the combination of the two surfactants can be calculated by the following expression: […]
Where, WM and WPGSE are, respectively, the weight fraction of MELs and polyethylene glycol sorbitan ester, in particular polyethylene glycol sorbitan monooleate, in the blend.

HLB: 15
Substance: polyethylene glycol sorbitan monooleate
